Targets include DYRK1B (Homo sapiens, UniProt Q9Y463); LTK (Homo sapiens, UniProt P29376); STK33 (Homo sapiens, UniProt Q9BYT3); TTBK1 (Homo sapiens, UniProt Q5TCY1).
Common to all, as to assay: biochemical
Common to all, as to conditions: read-out: Residual activity

TTBK1, sequence (Q5TCY1 whole entry): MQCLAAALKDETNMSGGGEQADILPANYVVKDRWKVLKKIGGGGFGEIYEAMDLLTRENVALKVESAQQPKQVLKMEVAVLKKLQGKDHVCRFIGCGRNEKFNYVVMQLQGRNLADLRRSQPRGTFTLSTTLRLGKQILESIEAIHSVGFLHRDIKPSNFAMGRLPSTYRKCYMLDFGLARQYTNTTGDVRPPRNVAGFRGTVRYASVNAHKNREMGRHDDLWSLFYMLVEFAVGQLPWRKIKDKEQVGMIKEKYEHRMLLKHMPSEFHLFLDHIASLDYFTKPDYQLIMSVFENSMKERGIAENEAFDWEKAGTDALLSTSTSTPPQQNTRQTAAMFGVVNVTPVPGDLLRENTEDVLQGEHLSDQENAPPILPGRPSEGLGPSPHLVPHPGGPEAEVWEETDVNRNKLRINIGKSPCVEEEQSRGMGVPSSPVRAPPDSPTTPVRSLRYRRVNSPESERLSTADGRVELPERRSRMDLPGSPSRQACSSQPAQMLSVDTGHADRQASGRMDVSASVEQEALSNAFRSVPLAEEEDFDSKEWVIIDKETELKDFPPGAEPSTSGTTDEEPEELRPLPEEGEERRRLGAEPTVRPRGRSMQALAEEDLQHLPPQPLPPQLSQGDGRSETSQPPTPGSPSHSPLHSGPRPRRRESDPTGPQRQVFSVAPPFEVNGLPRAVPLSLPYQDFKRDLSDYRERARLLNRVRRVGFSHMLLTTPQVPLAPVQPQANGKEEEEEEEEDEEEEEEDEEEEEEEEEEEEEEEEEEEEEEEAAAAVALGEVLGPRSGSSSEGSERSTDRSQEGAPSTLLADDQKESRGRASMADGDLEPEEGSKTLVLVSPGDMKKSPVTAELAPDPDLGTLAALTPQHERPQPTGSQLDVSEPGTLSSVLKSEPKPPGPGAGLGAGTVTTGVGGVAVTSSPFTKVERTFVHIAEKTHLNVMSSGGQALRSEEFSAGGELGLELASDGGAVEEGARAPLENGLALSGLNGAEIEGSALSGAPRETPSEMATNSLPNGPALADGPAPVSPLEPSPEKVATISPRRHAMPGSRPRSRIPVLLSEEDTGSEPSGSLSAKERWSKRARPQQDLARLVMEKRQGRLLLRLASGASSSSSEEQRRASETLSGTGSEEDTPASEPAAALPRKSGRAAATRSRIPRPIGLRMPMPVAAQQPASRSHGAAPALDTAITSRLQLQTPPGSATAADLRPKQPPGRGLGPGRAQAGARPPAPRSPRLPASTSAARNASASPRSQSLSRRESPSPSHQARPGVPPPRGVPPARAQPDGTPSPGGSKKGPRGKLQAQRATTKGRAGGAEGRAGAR
DYRK1B, sequence (Q9Y463 whole entry): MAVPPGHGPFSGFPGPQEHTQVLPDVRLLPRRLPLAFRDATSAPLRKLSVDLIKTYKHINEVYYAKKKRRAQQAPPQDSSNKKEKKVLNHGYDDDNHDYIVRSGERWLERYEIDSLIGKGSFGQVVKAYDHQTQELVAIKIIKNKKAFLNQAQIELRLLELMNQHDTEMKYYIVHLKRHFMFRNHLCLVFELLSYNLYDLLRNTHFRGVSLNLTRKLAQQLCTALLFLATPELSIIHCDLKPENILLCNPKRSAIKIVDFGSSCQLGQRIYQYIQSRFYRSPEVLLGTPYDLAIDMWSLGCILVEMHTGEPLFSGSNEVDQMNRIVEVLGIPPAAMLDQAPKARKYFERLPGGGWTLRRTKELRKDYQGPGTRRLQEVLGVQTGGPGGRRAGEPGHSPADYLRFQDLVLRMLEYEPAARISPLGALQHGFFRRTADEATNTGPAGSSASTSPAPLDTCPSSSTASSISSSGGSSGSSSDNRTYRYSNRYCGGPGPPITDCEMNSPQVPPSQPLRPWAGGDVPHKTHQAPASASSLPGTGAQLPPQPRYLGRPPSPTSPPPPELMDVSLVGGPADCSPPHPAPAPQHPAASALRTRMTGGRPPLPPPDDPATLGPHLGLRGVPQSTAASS
STK33, sequence (Q9BYT3 whole entry): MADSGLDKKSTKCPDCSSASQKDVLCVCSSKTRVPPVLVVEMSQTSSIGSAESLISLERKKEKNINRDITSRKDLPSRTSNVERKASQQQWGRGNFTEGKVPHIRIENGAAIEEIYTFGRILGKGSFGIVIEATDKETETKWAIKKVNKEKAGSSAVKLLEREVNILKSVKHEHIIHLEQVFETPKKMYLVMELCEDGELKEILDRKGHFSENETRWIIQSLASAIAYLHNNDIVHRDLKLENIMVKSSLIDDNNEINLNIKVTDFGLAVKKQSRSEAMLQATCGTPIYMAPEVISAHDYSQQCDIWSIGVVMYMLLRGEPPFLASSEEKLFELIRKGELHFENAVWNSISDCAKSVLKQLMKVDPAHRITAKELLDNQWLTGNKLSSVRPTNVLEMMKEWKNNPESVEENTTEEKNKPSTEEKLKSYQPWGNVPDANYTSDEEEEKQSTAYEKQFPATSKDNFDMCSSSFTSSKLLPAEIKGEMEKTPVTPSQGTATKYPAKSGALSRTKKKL
LTK, sequence (P29376 whole entry): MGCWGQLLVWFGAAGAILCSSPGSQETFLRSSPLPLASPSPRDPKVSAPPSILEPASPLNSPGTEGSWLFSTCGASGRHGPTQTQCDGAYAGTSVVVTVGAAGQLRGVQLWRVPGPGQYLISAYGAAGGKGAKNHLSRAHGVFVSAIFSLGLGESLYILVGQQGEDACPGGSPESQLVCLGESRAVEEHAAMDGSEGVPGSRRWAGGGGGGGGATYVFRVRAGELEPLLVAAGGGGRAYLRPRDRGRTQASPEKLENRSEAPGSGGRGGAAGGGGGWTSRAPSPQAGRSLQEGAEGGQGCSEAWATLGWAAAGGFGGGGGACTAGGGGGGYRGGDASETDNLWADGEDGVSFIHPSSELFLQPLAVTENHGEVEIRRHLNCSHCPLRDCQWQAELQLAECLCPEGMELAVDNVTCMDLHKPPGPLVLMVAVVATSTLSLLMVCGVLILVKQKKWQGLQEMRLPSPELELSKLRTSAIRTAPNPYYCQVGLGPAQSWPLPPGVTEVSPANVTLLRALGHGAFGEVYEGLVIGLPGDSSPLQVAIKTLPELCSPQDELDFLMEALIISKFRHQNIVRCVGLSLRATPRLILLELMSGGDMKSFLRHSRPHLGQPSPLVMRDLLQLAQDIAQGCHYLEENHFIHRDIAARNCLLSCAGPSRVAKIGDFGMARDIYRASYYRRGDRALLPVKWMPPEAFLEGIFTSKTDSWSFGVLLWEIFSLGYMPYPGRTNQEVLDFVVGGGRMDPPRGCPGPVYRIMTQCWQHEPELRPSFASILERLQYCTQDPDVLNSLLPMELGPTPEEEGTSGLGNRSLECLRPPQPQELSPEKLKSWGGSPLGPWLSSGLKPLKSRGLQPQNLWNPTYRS

For `CNc1ncc2cc(-c3ccc(-c4ncccc4F)cc3Cl)c(=O)n(CC3OCC(N)CO3)c2n1` (stereo not shown) [compound 10, 8-(((2r,5r)-5-Amino-1,3-dioxan-2-yl)methyl)-6-(2-chloro-4-(3-fluoropyridin-2-yl)phenyl)-2-(methylamino)pyrido[2,3-d]pyrimidin-7(8H)-one], the remaining activity at 1 µM on DYRK1B is 98%; on LTK, 105%; at STK33, 89%; on TTBK1, 131%.

The values above are taken from article doi:10.1101/2021.04.08.439011v1 (biorxiv, 2021).
